We go through one compound from patent publication US8809529B2, “Imidazo[1,2-α]pyrazine derivatives” (Promega Corporation, priority 2010, dated 2014).

The data set concerns HEK293 cells. The conditions noted are these: human, 24 h.

Take `O=c1c(Cc2ccc(O)cc2)nc2c(Cc3ccccc3)[nH]c(-c3ccccc3)cn1-2` [PBI-3840, 8-benzyl-2-(4-hydroxybenzyl)-6-phenylimidazo[1,2-a]pyrazin-3(7H)-one]: the “Viability (normalized to vehicle (DMSO) control) (%)” value is reported as 60%.
